{"source": "paper PMC5884652", "about": "“New antimicrobial peptide kills drug-resistant pathogens without detectable resistance” (Oncotarget, 2018)", "key": {"S. aureus": {"tested_on": "S. aureus", "assay": "SYTOX-Green uptake", "format": "cell-based", "conditions": "S. aureus 2 × 10^7 cfu/mL, 1 μM SYTOX-Green, 10 mM sodium phosphate buffer", "protocol": "S. aureus CCARM 259237 cells were grown to the mid-log phase and suspended in 10 mM sodium phosphate buffer supplemented with 10% culture medium at pH 7.4 and 37° C, and then washed and suspended (2 × 10^7 cfu/mL) in 10 mM sodium phosphate buffer (pH 7.4) and incubated with 1 μM SYTOX-Green for 20 min in the dark. After the addition of peptides at the appropriate concentrations (1/2 MIC, MIC, 2× MIC, and/or 4× MIC), time-dependent increases in fluorescence, which is caused by the binding of the cationic dye to intracellular nucleic acids, was monitored using a Perkin-Elmer LS55 fluorometer (excitation wavelength, 485 nm; emission wavelength, 520 nm)."}, "S. aureus 0027": {"tested_on": "S. aureus 0027", "assay": "microbe, parasite or virus in culture", "format": "cell-based, Staphylococcus aureus", "conditions": "pH 7.4 (II); 10 mM sodium phosphate buffer, 10% LB; 37° C, 24 h; mean of 3 experiments", "text": "(§1) The method for peptide synthesis has been described in detail previously. E. coli ATCC 25922 (LB media), P. aeruginosa ATCC 15692 (NB+0.5% NaCl media), Listeria monocytogenes ATCC 3710 (LB media), Staphylococcus epidermidis ATCC 12228 (LB media), and S. aureus ATCC 29213 (TSB media) were obtained from the American Type Culture Collection (Manassas, VA, USA). Bacillus subtilis KCTC 1998 (LB media), Salmonella typhimurium KCTC 1926 (NB media), and Proteus vulgaris KCTC 2433 (NB media) were obtained from the Korean Collection for Type Cultures (Jeollabuk-do, Korea). E. coli CCARM 1238 was received from the Culture Collection of Antibiotic Resistant Microbes at Seoul Women’s University, Korea. Drug-resistant P. aeruginosa 3543, 3904, 3547, and 4007 and S. aureus 3126, 0027, 5157, 1635, 4761, 5159, 3359, 2122, 1630, 1870, 3511, 5156, and 3518 were resistant strains isolated from patients with otitis media in a Chonnam National University’s hospital.\n(§2) The antibacterial activities of AMPs (melittin, clavaspirin, and its analogs) and conventional antibiotic drugs (erythromycin, gentamicin, ampicillin, and piperacidin) were determined using microdilution assays. Bacterial cells were cultured at 37° C in appropriate culture media at pH 5.5 or pH 7.4 until collection during the mid-log phase and suspended in 10 mM sodium phosphate buffer (pH 5.5 or pH 7.4) supplemented with 10% culture medium. Thereafter, 2× serial dilutions of each peptide (0.25–128 μM) or antibiotic (0.25–256 μM) were added to sterile 96-well plates, and aliquots of cell suspension (5 × 10^5 colony forming units (cfu)/mL) were seeded into each well. The samples were then incubated at 37° C for 24 h. At the end of the incubation, the minimum inhibitory concentrations (MICs) of the peptides were determined using a VERSA Max microplate reader (Molecular Devices Co., Sunnyvale, CA, USA) at a wavelength of 600 nm. […] MIC values were calculated as the mean of 3 independent experiments conducted in triplicate."}, "S. aureus 1630": {"tested_on": "S. aureus 1630", "assay": "microbe, parasite or virus in culture", "format": "cell-based, Staphylococcus aureus", "conditions": "pH 7.4 (II); 10 mM sodium phosphate buffer, 10% LB; 37° C, 24 h; mean of 3 experiments", "text": "as §1, §2"}, "S. aureus 3126": {"tested_on": "S. aureus 3126", "assay": "microbe, parasite or virus in culture", "format": "cell-based, Staphylococcus aureus", "conditions": "pH 7.4 (II); 10 mM sodium phosphate buffer, 10% LB; 37° C, 24 h; mean of 3 experiments", "text": "as §1, §2"}, "S. aureus 5159": {"tested_on": "S. aureus 5159", "assay": "microbe, parasite or virus in culture", "format": "cell-based, Staphylococcus aureus", "conditions": "pH 7.4 (II); 10 mM sodium phosphate buffer, 10% LB; 37° C, 24 h; mean of 3 experiments", "text": "as §1, §2"}, "S. aureus 2122": {"tested_on": "S. aureus 2122", "assay": "microbe, parasite or virus in culture", "format": "cell-based, Staphylococcus aureus", "conditions": "pH 7.4 (II); 10 mM sodium phosphate buffer, 10% LB; 37° C, 24 h; mean of 3 experiments", "text": "as §1, §2"}, "S. aureus 3359": {"tested_on": "S. aureus 3359", "assay": "microbe, parasite or virus in culture", "format": "cell-based, Staphylococcus aureus", "conditions": "pH 7.4 (II); 10 mM sodium phosphate buffer, 10% LB; 37° C, 24 h; mean of 3 experiments", "text": "as §1, §2"}, "S. aureus 5157": {"tested_on": "S. aureus 5157", "assay": "microbe, parasite or virus in culture", "format": "cell-based, Staphylococcus aureus", "conditions": "pH 7.4 (II); 10 mM sodium phosphate buffer, 10% LB; 37° C, 24 h; mean of 3 experiments", "text": "as §1, §2"}, "S. aureus 1635": {"tested_on": "S. aureus 1635", "assay": "microbe, parasite or virus in culture", "format": "cell-based, Staphylococcus aureus", "conditions": "pH 7.4 (II); 10 mM sodium phosphate buffer, 10% LB; 37° C, 24 h; mean of 3 experiments", "text": "as §1, §2"}}, "note": "Ends that are not written are not given here.", "data": [{"substance": "FLRFIGSVKHGKGHLVHHIGVAL-NH2 [CSP-4]", "values": [{"measurement": "Membrane disruption (SYTOX-Green fluorescence)", "setting": "S. aureus", "result": "dose-dependent increase in fluorescence intensity"}, {"measurement": "MIC", "setting": "S. aureus 0027", "result": 8, "unit": "µM"}, {"measurement": "MIC", "setting": "S. aureus 1630", "result": 8, "unit": "µM"}, {"measurement": "MIC", "setting": "S. aureus 3126", "result": 8, "unit": "µM"}, {"measurement": "MIC", "setting": "S. aureus 5159", "result": 8, "unit": "µM"}, {"measurement": "MIC", "setting": "S. aureus 2122", "result": 8, "unit": "µM"}, {"measurement": "MIC", "setting": "S. aureus 3359", "result": 8, "unit": "µM"}, {"measurement": "MIC", "setting": "S. aureus 5157", "result": 8, "unit": "µM"}, {"measurement": "MIC", "setting": "S. aureus 1635", "result": 8, "unit": "µM"}]}]}
